Source: ChEMBL document CHEMBL1201862, “PubChem BioAssay data set” (2004)
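Five concentrations, 48 hours, 96-well plates. GI50 is the concentration that inhibits growth by half.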 Activity calls are given as the source filed them. No stated cut-off is given here; in the data, active = GI50 up to about 1.1 µM and inactive = higher.

How the values were obtained:
Assay in all cases: DTP human tumour cell line panel, 48 h
A549 = test system: A549
ACHN = test system: ACHN
COLO 205 = test system: COLO 205
HOP-62 = test system: HOP-62
HOP-92 = test system: HOP-92
LOX IMVI = test system: LOX IMVI
M14 = test system: M14
MDA-MB-231 = test system: MDA-MB-231
NCI-H23 = test system: NCI-H23
NCI-H522 = test system: NCI-H522
NCI/ADR-RES = test system: NCI/ADR-RES
OVCAR-4 = test system: OVCAR-4
SF-295 = test system: SF-295
SK-MEL-28 = test system: SK-MEL-28
SK-OV-3 = test system: SK-OV-3
SNB-19 = test system: SNB-19
SW-620 = test system: SW-620
UACC-62 = test system: UACC-62
Malme-3M = test system: Malme-3M

Measured: GI50

CCOc1ccc2nc(NC(=O)C(=O)C3C(=O)C(CC4C(=O)c5ccccc5C4=O)C(=O)CC3(C)C)sc2c1 (stereo unspecified)
inactive: A549 87.5 µM | ACHN > 100 µM | COLO 205 > 100 µM | HOP-62 > 100 µM | HOP-92 34.6 µM | LOX IMVI > 100 µM | M14 > 100 µM | MDA-MB-231 24 µM | NCI-H23 95.1 µM | NCI-H522 > 100 µM | NCI/ADR-RES > 100 µM | OVCAR-4 56.1 µM | SF-295 > 100 µM | SK-MEL-28 > 100 µM | SK-OV-3 > 100 µM | SNB-19 > 100 µM | SW-620 > 100 µM | UACC-62 90.4 µM

COc1ccc(-c2c(C(C)=O)c(-c3ccccc3)n(C3OC(CO)C(O)C(O)C3O)c(=S)c2C#N)cc1 (stereo unspecified)
inactive: A549 > 100 µM | ACHN > 100 µM | COLO 205 > 100 µM | HOP-62 > 100 µM | LOX IMVI > 100 µM | M14 > 100 µM | MDA-MB-231 > 100 µM | Malme-3M > 100 µM | NCI-H23 > 100 µM | NCI-H522 > 100 µM | NCI/ADR-RES > 100 µM | OVCAR-4 > 100 µM | SF-295 > 100 µM | SK-MEL-28 > 100 µM | SK-OV-3 > 100 µM | SNB-19 > 100 µM | SW-620 > 100 µM | UACC-62 43.6 µM

CC1=C[C@H](O)[C@@]2(C)[C@@H]([C@@H]1C)[C@H]1CC[C@@H]3[C@@]4(C)CC[C@H](O)C(C)(C)[C@@H]4CC[C@@]3(C)[C@]1(C)C[C@@H]2O
inactive: A549 12.8 µM | COLO 205 16.6 µM | HOP-62 17.3 µM | HOP-92 13.8 µM | LOX IMVI 21.5 µM | M14 17.1 µM | MDA-MB-231 20.3 µM | Malme-3M 20.6 µM | NCI-H23 23.1 µM | NCI-H522 17.9 µM | NCI/ADR-RES 19.8 µM | OVCAR-4 17.9 µM | SF-295 16.1 µM | SK-MEL-28 18.3 µM | SK-OV-3 18.4 µM | SNB-19 15.8 µM | SW-620 22.1 µM | UACC-62 18.8 µM

CCc1n[nH]c(=O)n1/N=C/c1ccc(/C=N/n2c(CC)n[nH]c2=O)cc1
inactive: A549 > 100 µM | ACHN > 100 µM | COLO 205 > 100 µM | HOP-62 > 100 µM | LOX IMVI > 100 µM | M14 > 100 µM | MDA-MB-231 > 100 µM | Malme-3M > 100 µM | NCI-H23 > 100 µM | NCI-H522 > 100 µM | NCI/ADR-RES > 100 µM | OVCAR-4 > 100 µM | SF-295 > 100 µM | SK-MEL-28 > 100 µM | SNB-19 > 100 µM | SW-620 > 100 µM | UACC-62 > 100 µM

CC(C)=NNc1snnc1C(N)=O
inactive: A549 > 100 µM | ACHN > 100 µM | COLO 205 > 100 µM | HOP-62 > 100 µM | LOX IMVI > 100 µM | M14 > 100 µM | MDA-MB-231 > 100 µM | Malme-3M > 100 µM | NCI-H23 > 100 µM | NCI-H522 > 100 µM | NCI/ADR-RES > 100 µM | SF-295 > 100 µM | SK-MEL-28 > 100 µM | SK-OV-3 > 100 µM | SNB-19 > 100 µM | SW-620 > 10 µM | UACC-62 > 100 µM

COc1cc([C@@H]2c3cc4c(cc3[C@H](OC3OC5COC(c6ccco6)OC5C(O)C3O)C3COC(=O)[C@@H]32)OCO4)cc(OC)c1OC (stereo partly specified)
inactive: A549 3.79 µM | ACHN 4.6 µM | COLO 205 4.06 µM | HOP-62 7.89 µM | HOP-92 9.93 µM | LOX IMVI 4.06 µM | M14 4.44 µM | MDA-MB-231 4.43 µM | Malme-3M 22.3 µM | NCI-H23 3.56 µM | NCI-H522 8.34 µM | NCI/ADR-RES 9.93 µM | OVCAR-4 41.6 µM | SF-295 3.67 µM | SK-OV-3 > 19.9 µM | SNB-19 3.9 µM | SW-620 3.5 µM | UACC-62 4.73 µM
